From publication doi:10.1101/2023.03.24.534094v2 (biorxiv, 2023) come the findings set out here.

Molecules are shown by their SMILES. Like-named read-outs stand apart in the source and are kept apart here.

Among the targets are JNK2 (Homo sapiens, UniProt P45984); NEK7 (Homo sapiens, UniProt Q8TDX7); EphA7 (Homo sapiens, UniProt Q15375); MAPKAPK2 (Homo sapiens, UniProt P49137); CDK2 (Homo sapiens, UniProt P24941); TAF1 (Homo sapiens, UniProt P21675).
Holding throughout (test): biochemical
The next assay has as its target T1, PHKG2 (Homo sapiens, UniProt P15735).
T1 sequence (P15735 1-406): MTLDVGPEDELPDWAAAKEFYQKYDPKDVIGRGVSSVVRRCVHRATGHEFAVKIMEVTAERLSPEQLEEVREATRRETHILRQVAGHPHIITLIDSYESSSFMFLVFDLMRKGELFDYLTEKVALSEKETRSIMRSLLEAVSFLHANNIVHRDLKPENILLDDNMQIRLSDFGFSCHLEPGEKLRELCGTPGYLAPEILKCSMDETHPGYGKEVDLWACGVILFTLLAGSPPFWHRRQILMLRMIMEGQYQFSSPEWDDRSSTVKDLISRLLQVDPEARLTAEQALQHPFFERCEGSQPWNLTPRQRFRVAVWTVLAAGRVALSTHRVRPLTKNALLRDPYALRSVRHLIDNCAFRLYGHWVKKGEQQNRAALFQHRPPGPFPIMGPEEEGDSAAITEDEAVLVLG

The target in another assay is T2, DCAMKL1 (Homo sapiens, UniProt O15075).
T2 sequence (O15075 1-740): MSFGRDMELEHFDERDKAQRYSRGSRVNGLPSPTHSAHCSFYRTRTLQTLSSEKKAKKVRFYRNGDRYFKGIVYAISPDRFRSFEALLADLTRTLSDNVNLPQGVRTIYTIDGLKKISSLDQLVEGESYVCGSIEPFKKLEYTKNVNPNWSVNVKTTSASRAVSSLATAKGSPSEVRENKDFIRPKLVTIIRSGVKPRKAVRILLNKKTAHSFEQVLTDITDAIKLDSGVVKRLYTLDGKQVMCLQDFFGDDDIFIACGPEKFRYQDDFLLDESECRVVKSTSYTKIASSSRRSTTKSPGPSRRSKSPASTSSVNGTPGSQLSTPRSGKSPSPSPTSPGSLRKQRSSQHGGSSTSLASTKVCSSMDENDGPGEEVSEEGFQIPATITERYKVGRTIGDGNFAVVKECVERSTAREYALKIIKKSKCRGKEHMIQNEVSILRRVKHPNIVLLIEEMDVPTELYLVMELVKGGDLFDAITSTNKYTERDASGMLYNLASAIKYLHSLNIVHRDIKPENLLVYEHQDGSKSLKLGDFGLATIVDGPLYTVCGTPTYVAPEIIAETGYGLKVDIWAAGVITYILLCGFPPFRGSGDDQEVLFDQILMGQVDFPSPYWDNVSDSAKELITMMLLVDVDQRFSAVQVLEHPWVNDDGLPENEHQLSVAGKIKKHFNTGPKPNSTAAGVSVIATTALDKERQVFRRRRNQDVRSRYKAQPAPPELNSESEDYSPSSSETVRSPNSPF

A further assay deals with T3, FECH (Homo sapiens, UniProt P22830).
T3 sequence (P22830 1-423): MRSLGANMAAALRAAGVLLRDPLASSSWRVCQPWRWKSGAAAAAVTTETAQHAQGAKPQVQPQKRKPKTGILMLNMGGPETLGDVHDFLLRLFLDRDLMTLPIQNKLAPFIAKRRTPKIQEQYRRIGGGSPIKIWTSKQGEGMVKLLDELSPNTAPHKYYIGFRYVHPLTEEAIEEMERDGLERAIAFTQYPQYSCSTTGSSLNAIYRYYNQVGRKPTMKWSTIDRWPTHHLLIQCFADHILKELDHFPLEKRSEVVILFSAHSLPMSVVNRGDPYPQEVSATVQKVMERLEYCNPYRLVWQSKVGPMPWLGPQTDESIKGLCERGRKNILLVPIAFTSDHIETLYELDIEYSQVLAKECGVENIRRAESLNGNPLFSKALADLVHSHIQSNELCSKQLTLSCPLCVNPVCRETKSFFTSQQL

Chain of JNK2 (P45984 whole entry): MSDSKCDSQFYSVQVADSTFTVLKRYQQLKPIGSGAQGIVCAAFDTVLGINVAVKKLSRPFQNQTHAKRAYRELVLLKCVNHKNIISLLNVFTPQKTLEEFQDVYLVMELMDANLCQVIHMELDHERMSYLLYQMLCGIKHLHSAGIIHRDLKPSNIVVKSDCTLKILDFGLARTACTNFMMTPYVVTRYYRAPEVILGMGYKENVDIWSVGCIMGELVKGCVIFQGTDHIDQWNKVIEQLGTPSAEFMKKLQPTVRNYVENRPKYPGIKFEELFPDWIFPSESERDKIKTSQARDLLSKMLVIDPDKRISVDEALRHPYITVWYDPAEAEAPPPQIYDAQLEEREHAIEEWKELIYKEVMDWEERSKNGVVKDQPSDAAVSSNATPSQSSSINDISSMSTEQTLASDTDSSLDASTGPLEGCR
Chain of TAF1 (P21675 whole entry): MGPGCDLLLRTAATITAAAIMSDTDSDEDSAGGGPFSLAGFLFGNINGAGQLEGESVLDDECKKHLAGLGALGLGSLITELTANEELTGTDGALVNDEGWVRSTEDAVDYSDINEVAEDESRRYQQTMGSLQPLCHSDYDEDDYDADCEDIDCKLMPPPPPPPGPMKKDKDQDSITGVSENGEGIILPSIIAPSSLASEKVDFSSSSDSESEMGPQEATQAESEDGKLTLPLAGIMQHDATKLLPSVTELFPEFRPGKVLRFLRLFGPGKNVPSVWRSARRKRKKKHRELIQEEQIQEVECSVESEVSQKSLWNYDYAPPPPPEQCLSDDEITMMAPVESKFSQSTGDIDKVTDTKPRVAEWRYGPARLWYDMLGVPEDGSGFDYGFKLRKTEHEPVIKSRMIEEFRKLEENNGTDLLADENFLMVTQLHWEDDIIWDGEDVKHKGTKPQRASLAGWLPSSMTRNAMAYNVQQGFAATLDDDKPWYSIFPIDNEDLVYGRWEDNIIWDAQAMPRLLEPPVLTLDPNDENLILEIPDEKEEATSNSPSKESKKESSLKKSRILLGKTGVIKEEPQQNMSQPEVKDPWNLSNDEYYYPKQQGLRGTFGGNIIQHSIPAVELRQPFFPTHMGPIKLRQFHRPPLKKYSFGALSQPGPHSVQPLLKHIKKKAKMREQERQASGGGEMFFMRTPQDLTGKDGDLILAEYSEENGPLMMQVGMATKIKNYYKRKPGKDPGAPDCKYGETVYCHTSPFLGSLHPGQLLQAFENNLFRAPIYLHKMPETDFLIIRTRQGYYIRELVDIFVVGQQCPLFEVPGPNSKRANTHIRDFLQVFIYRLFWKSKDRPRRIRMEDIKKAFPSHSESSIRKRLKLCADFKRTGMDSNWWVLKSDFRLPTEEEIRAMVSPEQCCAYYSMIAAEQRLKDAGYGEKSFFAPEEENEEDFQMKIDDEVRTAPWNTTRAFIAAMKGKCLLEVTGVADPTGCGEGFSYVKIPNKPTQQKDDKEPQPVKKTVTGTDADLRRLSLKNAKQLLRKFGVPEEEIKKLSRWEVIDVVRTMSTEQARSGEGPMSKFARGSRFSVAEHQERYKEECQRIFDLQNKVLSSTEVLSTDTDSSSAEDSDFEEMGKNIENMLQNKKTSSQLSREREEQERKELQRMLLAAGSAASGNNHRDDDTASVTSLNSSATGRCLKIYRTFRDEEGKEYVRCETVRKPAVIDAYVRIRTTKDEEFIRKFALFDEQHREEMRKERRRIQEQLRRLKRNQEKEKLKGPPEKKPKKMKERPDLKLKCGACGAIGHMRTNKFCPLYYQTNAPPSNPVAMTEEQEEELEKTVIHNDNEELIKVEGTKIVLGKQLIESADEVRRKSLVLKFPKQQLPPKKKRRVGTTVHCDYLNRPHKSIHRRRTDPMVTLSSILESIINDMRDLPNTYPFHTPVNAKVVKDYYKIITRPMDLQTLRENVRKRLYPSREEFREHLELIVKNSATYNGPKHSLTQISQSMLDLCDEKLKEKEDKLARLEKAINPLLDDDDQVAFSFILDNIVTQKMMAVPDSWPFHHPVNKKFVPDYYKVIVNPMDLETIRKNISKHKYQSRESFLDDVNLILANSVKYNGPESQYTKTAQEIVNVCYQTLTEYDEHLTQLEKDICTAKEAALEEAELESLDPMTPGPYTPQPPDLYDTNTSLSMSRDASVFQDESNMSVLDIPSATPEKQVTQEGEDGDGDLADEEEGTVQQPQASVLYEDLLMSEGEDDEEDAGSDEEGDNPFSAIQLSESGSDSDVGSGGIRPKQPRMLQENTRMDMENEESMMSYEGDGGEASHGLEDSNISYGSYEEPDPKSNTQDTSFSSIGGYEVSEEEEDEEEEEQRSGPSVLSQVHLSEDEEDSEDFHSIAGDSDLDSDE
Chain of NEK7 (Q8TDX7 whole entry): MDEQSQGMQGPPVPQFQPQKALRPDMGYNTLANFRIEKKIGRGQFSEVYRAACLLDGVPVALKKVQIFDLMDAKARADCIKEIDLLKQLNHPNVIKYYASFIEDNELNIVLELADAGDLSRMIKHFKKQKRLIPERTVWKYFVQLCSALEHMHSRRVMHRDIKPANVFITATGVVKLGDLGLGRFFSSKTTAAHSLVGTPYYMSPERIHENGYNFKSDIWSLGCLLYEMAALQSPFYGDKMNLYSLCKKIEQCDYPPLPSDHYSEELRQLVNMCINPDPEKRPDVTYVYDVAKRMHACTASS
Chain of EphA7 (Q15375 whole entry): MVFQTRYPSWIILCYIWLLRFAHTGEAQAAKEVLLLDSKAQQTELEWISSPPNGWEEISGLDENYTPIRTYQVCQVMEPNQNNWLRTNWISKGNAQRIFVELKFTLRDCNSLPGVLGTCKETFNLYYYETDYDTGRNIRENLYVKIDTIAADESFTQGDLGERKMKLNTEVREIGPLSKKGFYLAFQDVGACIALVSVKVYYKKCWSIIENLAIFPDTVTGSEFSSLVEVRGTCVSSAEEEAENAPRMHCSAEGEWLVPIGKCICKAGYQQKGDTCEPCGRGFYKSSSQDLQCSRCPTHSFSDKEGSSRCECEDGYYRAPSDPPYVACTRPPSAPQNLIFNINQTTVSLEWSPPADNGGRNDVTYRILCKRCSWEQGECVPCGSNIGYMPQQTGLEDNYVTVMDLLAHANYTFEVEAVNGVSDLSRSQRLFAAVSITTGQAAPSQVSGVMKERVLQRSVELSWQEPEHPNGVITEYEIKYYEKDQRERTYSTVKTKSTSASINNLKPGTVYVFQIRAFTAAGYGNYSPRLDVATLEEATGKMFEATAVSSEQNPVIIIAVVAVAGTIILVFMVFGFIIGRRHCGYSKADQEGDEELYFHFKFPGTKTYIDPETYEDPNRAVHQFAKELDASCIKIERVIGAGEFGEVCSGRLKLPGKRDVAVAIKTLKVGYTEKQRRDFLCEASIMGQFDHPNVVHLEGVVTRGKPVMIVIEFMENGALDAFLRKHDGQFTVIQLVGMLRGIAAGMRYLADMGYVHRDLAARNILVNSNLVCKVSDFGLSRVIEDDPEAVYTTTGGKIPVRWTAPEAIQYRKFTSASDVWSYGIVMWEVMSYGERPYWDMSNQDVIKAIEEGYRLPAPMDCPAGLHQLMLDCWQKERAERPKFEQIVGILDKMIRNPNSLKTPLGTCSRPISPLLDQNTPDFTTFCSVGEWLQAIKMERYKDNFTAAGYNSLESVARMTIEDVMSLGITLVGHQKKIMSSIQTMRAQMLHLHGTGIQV
Chain of MAPKAPK2 (P49137 whole entry): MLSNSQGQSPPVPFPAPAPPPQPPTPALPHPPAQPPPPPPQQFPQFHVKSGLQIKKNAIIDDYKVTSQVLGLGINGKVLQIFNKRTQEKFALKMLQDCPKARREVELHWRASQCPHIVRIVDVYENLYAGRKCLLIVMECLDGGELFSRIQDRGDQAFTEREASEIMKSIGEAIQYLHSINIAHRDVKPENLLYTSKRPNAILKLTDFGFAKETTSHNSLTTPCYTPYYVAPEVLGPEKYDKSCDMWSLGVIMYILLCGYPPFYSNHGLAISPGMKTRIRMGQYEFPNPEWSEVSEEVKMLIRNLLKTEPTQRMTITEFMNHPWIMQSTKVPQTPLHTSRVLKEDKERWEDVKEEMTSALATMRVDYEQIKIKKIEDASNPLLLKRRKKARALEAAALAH

For `CNc1ncc2cc(-c3ccc(-c4cccc(C)n4)cc3Cl)c(=O)n(CC3OCC(N)CO3)c2n1` (stereo not drawn) [compound 2, G-5555], the “dTm G-5555 (2)” value is 0.6 °C on PHKG2 (10 µM, binder); 0.3 °C on DCAMKL1 (10 µM, binder); 0.6 °C on JNK2 (10 µM, binder); 0.1 °C at NEK7 (10 µM, binder); 4.1 °C at EphA7 (10 µM, binder); -0.3 °C at MAPKAPK2 (10 µM, binder). The “dTm G-5555 (2)” value at CDK2 (10 µM, binder) is 0.5 °C.
For `CNc1ncc2cc(-c3ccccc3Cl)c(=O)n(CCCCN)c2n1` [compound 4, 8-(4-Aminobutyl)-6-(2-chlorophenyl)-2-(methylamino)pyrido[2,3-d]pyrimidin-7(8H)-one], the ΔTm at 10 µM is -1.1 °C at FECH (read-out: dTm MR21 (4)); -0.1 °C at TAF1 (read-out: dTm MR21 (4)); 0.3 °C on PHKG2 (read-out: dTm MR21 (4)); 0.2 °C on DCAMKL1 (read-out: dTm MR21 (4)); -0.1 °C at JNK2 (read-out: dTm MR21 (4)); 0.1 °C on NEK7 (read-out: dTm MR21 (4)). The ΔTm at 10 µM at EphA7 (read-out: dTm MR21 (4)) stood at 1.8 °C; at MAPKAPK2 (read-out: dTm MR21 (4)) it was 0.1 °C; at CDK2 (read-out: dTm MR21 (4)), 0.4 °C.
As to `CNc1ncc2cc(-c3cc(Br)ccc3Cl)c(=O)n(C[C@H]3OC[C@H](N)CO3)c2n1` [compound 7, 8-(((2r,5r)-5-Amino-1,3-dioxan-2-yl)methyl)-6-(5-bromo-2-chlorophenyl)-2-(methylamino)pyrido[2,3-d]pyrimidin-7(8H)-one], the ΔTm at 10 µM on FECH (read-out: dTm 7) was -1.1 °C; on TAF1 (read-out: dTm 7), -0.8 °C; on PHKG2 (read-out: dTm 7), 0.3 °C; at DCAMKL1 (read-out: dTm 7) it was 1 °C; on JNK2 (read-out: dTm 7), 1.1 °C; at NEK7 (read-out: dTm 7), -0.2 °C. Besides, the figures for the ΔTm at 10 µM on EphA7 (read-out: dTm 7), at MAPKAPK2 (read-out: dTm 7) and on CDK2 (read-out: dTm 7) were -0.5 °C, 0 °C and 0.3 °C, respectively.
For `CNc1ncc2cc(-c3cc(Br)ccc3Cl)c(=O)n(CCCCN)c2n1` [compound 6, 8-(4-Aminobutyl)-6-(5-bromo-2-chlorophenyl)-2-(methylamino)pyrido[2,3-d]pyrimidin-7(8H)-one], the ΔTm at 10 µM was 0.2 °C at FECH (read-out: dTm 6); -0.6 °C at TAF1 (read-out: dTm 6); 0.8 °C at PHKG2 (read-out: dTm 6); -0.5 °C at DCAMKL1 (read-out: dTm 6); -0.4 °C at JNK2 (read-out: dTm 6); -1 °C on NEK7 (read-out: dTm 6). Besides, the ΔTm at 10 µM on EphA7 (read-out: dTm 6) is 2.7 °C; on MAPKAPK2 (read-out: dTm 6) it was -0.7 °C; on CDK2 (read-out: dTm 6), 0.5 °C.
Regarding `CNc1ncc2cc(-c3cc(F)ccc3F)c(=O)n(CCCCN)c2n1` [compound 5, 8-(4-Aminobutyl)-6-(2,5-difluorophenyl)-2-(methylamino)pyrido[2,3-d]pyrimidin-7(8H)-one], the ΔTm at 10 µM on FECH (read-out: dTm MR22 (5)) is 0.3 °C; on TAF1 (read-out: dTm MR22 (5)) it was 0.2 °C; at PHKG2 (read-out: dTm MR22 (5)), 1.4 °C; at JNK2 (read-out: dTm MR22 (5)) it was 0.2 °C; on NEK7 (read-out: dTm MR22 (5)), -1.3 °C; on EphA7 (read-out: dTm MR22 (5)) it was -1.6 °C. Moreover, the ΔTm at 10 µM was -0.1 °C on MAPKAPK2 (read-out: dTm MR22 (5)) and 0.7 °C at CDK2 (read-out: dTm MR22 (5)).
